Source: PubChem BioAssay AID256 (DTP/NCI, 2004)
Where “and” joins values, the source holds several entries; their conditions need not be identical. Identical values can stand only once. Toxic doses and inconclusive results are not listed.

System: CD2F1 mice, L1210 leukemia ip, survival T/C
Experiment: NCI In Vivo Anticancer Drug Screen. Data for tumor model L1210 Leukemia (intraperitoneal) in CD2F1 (CDF1) mice
Conditions: higher = longer survival
Outline: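 Transplantable tumor in mice; compound-treated vs vehicle-treated groups. Read-out = treated/control ratio of the measured endpoint.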

[1] = endpoint: mean survival time, dose: 12.5 mg/kg/injection, schedule: Q01DX009 (ip), vehicle: saline with Tween-80
[2] = endpoint: mean survival time, dose: 25.0 mg/kg/injection, schedule: Q01DX009 (ip), vehicle: saline with Tween-80
[3] = endpoint: mean survival time, dose: 50.0 mg/kg/injection, schedule: Q01DX009 (ip), vehicle: saline with Tween-80
[4] = endpoint: mean survival time, dose: 200.0 mg/kg/injection, schedule: Q01DX009 (ip), vehicle: saline with Tween-80

## CC1=CC(=NN=c2cc(C)n([O-])c(C)c2)C=C(C)[N+]1=O
[1]
  T/C: 104 % of control
endpoint: mean survival time, dose: 12.5 mg/kg/injection, schedule: Q01DX009 (ip), vehicle: suspension in saline
  T/C: 108 % of control
[2]
  T/C: 108 % of control
endpoint: mean survival time, dose: 25.0 mg/kg/injection, schedule: Q01DX009 (ip), vehicle: suspension in saline
  T/C: 110 % of control
[3]
  T/C: 101 % of control
endpoint: mean survival time, dose: 50.0 mg/kg/injection, schedule: Q01DX009 (ip), vehicle: suspension in saline
  T/C: 106 % of control
endpoint: mean survival time, dose: 100.0 mg/kg/injection, schedule: Q01DX009 (ip), vehicle: suspension in saline
  T/C: 104 % of control
[4]
  T/C: 106 % of control
endpoint: mean survival time, dose: 200.0 mg/kg/injection, schedule: Q01DX009 (ip), vehicle: suspension in saline
  T/C: 166 % of control

## CC([N+](=O)[O-])S(C)(=O)=O (stereo not drawn)
endpoint: mean survival time, dose: 100.0 mg/kg/injection, schedule: Q01DX001 (ip), vehicle: saline with Tween-80
  T/C: 97 % of control
endpoint: mean survival time, dose: 200.0 mg/kg/injection, schedule: Q01DX001 (ip), vehicle: saline with Tween-80
  T/C: 101 % of control
endpoint: mean survival time, dose: 400.0 mg/kg/injection, schedule: Q01DX001 (ip), vehicle: saline with Tween-80
  T/C: 101 % of control

## NC(=O)OCC(O)C(O)C(N)C(=O)NC(C(=O)O)C1OC(n2ccc(=O)[nH]c2=O)C(O)C1O (stereo not drawn)
endpoint: mean survival time, dose: 12.5 mg/kg/injection, schedule: Q01DX005 (ip), vehicle: water
  T/C: 96 % of control
endpoint: mean survival time, dose: 25.0 mg/kg/injection, schedule: Q01DX005 (ip), vehicle: water
  T/C: 103 % of control
endpoint: mean survival time, dose: 50.0 mg/kg/injection, schedule: Q01DX005 (ip), vehicle: water
  T/C: 98 % of control
endpoint: mean survival time, dose: 100.0 mg/kg/injection, schedule: Q01DX005 (ip), vehicle: water
  T/C: 101 % of control
endpoint: mean survival time, dose: 200.0 mg/kg/injection, schedule: Q01DX005 (ip), vehicle: water
  T/C: 94 % of control

## CCOc1ccc2cc(S(=O)(=O)O)ccc2c1N
endpoint: mean survival time, dose: 100.0 mg/kg/injection, schedule: Q04DX003 (ip), vehicle: saline
  T/C: 93 % of control
endpoint: mean survival time, dose: 200.0 mg/kg/injection, schedule: Q04DX003 (ip), vehicle: saline
  T/C: 95 % of control
endpoint: mean survival time, dose: 400.0 mg/kg/injection, schedule: Q04DX003 (ip), vehicle: saline
  T/C: 103 % of control

## CC(C#N)(Nc1ccccc1)c1ccc(Cl)cc1 (stereo not drawn)
[3]
  T/C: 86 % of control
[4]
  T/C: 97 % of control
endpoint: mean survival time, dose: 200.0 mg/kg/injection, schedule: Q04DX003 (ip), vehicle: saline with Tween-80
  T/C: 87 % of control

## C[CH2][Sn]([Cl])([CH2]C)[c]1cc[c]([Sn]([Cl])([CH2]C)[CH2]C)cc1
endpoint: median survival time, dose: 0.06 mg/kg/injection, schedule: Q01DX005 (ip), vehicle: Klucel (hydroxypropylcellulose) (HPC)
  T/C: 103 % of control
endpoint: median survival time, dose: 0.12 mg/kg/injection, schedule: Q01DX005 (ip), vehicle: Klucel (hydroxypropylcellulose) (HPC)
  T/C: 112 % of control
endpoint: median survival time, dose: 3.8 micrograms/kg/injection, schedule: Q01DX005 (ip), vehicle: Klucel (hydroxypropylcellulose) (HPC)
  T/C: 103 % of control
endpoint: median survival time, dose: 7.5 micrograms/kg/injection, schedule: Q01DX005 (ip), vehicle: Klucel (hydroxypropylcellulose) (HPC)
  T/C: 100 % of control
endpoint: median survival time, dose: 15.0 micrograms/kg/injection, schedule: Q01DX005 (ip), vehicle: Klucel (hydroxypropylcellulose) (HPC)
  T/C: 102 % of control
endpoint: median survival time, dose: 30.0 micrograms/kg/injection, schedule: Q01DX005 (ip), vehicle: Klucel (hydroxypropylcellulose) (HPC)
  T/C: 98 % of control
endpoint: median survival time, dose: 60.0 micrograms/kg/injection, schedule: Q01DX005 (ip), vehicle: Klucel (hydroxypropylcellulose) (HPC)
  T/C: 103 % of control
endpoint: median survival time, dose: 120.0 micrograms/kg/injection, schedule: Q01DX005 (ip), vehicle: Klucel (hydroxypropylcellulose) (HPC)
  T/C: 109 % of control

## NC(=S)N/N=C\c1ncccc1OCc1cccc(N)c1
endpoint: mean survival time, dose: 12.5 mg/kg/injection, schedule: Q01DX009 (ip), vehicle: distilled water + Tween-80
  T/C: 104 % of control
[1]
  T/C: 100 % of control
endpoint: mean survival time, dose: 25.0 mg/kg/injection, schedule: Q01DX009 (ip), vehicle: distilled water + Tween-80
  T/C: 113 % of control and 104 % of control
[2]
  T/C: 116 % of control and 100 % of control and 107 % of control
endpoint: mean survival time, dose: 50.0 mg/kg/injection, schedule: Q01DX009 (ip), vehicle: distilled water + Tween-80
  T/C: 119 % of control and 111 % of control
[3]
  T/C: 101 % of control and 103 % of control and 110 % of control
endpoint: mean survival time, dose: 100.0 mg/kg/injection, schedule: Q01DX009 (ip), vehicle: distilled water + Tween-80
  T/C: 113 % of control and 119 % of control
endpoint: mean survival time, dose: 100.0 mg/kg/injection, schedule: Q01DX009 (ip), vehicle: saline with Tween-80
  T/C: 117 % of control and 100 % of control and 105 % of control
endpoint: mean survival time, dose: 200.0 mg/kg/injection, schedule: Q01DX009 (ip), vehicle: distilled water + Tween-80
  T/C: 122 % of control
[4]
  T/C: 114 % of control and 117 % of control and 108 % of control
endpoint: mean survival time, dose: 400.0 mg/kg/injection, schedule: Q01DX009 (ip), vehicle: distilled water + Tween-80
  T/C: 117 % of control
endpoint: mean survival time, dose: 400.0 mg/kg/injection, schedule: Q01DX009 (ip), vehicle: saline with Tween-80
  T/C: 115 % of control and 108 % of control
endpoint: median survival time, dose: 50.0 mg/kg/injection, schedule: Q01DX009 (ip), vehicle: distilled water + Tween-80
  T/C: 109 % of control
endpoint: median survival time, dose: 100.0 mg/kg/injection, schedule: Q01DX009 (ip), vehicle: distilled water + Tween-80
  T/C: 115 % of control
endpoint: median survival time, dose: 200.0 mg/kg/injection, schedule: Q01DX009 (ip), vehicle: distilled water + Tween-80
  T/C: 118 % of control
endpoint: median survival time, dose: 400.0 mg/kg/injection, schedule: Q01DX009 (ip), vehicle: distilled water + Tween-80
  T/C: 124 % of control

## NC(Cc1ccc(N(CCCl)CCCl)cc1)C(=O)O (stereo not drawn)
endpoint: mean survival time, dose: 5.0 mg/kg/injection, schedule: Q01DX009 (ip), vehicle: Klucel (hydroxypropylcellulose) (HPC)
  T/C: 106 % of control
endpoint: mean survival time, dose: 5.0 mg/kg/injection, schedule: Q01DX009 (ip), vehicle: saline with Tween-80
  T/C: 121 % of control
endpoint: mean survival time, dose: 6.4 mg/kg/injection, schedule: Q01DX001 (ip), vehicle: water
  T/C: 104 % of control
endpoint: mean survival time, dose: 6.4 mg/kg/injection, schedule: Q11HX001 (ip), vehicle: water
  T/C: 104 % of control
endpoint: mean survival time, dose: 8.0 mg/kg/injection, schedule: Q01DX001 (ip), vehicle: water
  T/C: 101 % of control
endpoint: mean survival time, dose: 8.0 mg/kg/injection, schedule: Q11HX001 (ip), vehicle: water
  T/C: 101 % of control
endpoint: mean survival time, dose: 10.0 mg/kg/injection, schedule: Q01DX001 (ip), vehicle: water
  T/C: 105 % of control
endpoint: mean survival time, dose: 10.0 mg/kg/injection, schedule: Q01DX009 (ip), vehicle: Klucel (hydroxypropylcellulose) (HPC)
  T/C: 105 % of control
endpoint: mean survival time, dose: 10.0 mg/kg/injection, schedule: Q01DX009 (ip), vehicle: saline with Tween-80
  T/C: 113 % of control
endpoint: mean survival time, dose: 10.0 mg/kg/injection, schedule: Q03DX003 (ip), vehicle: Klucel (hydroxypropylcellulose) (HPC)
  T/C: 183 % of control
endpoint: mean survival time, dose: 10.0 mg/kg/injection, schedule: Q04DX003 (ip), vehicle: Klucel (hydroxypropylcellulose) (HPC)
  T/C: 168 % of control
endpoint: mean survival time, dose: 10.0 mg/kg/injection, schedule: Q11HX001 (ip), vehicle: water
  T/C: 105 % of control
endpoint: mean survival time, dose: 12.5 mg/kg/injection, schedule: Q01DX001 (ip), vehicle: water
  T/C: 104 % of control
endpoint: mean survival time, dose: 12.5 mg/kg/injection, schedule: Q11HX001 (ip), vehicle: water
  T/C: 104 % of control
endpoint: mean survival time, dose: 20.0 mg/kg/injection, schedule: Q01DX007 (ip), vehicle: Klucel (hydroxypropylcellulose) (HPC)
  T/C: 94 % of control
endpoint: mean survival time, dose: 20.0 mg/kg/injection, schedule: Q01DX007 (ip), vehicle: saline with Tween-80
  T/C: 113 % of control
endpoint: mean survival time, dose: 20.0 mg/kg/injection, schedule: Q01DX009 (ip), vehicle: Klucel (hydroxypropylcellulose) (HPC)
  T/C: 86 % of control
endpoint: mean survival time, dose: 20.0 mg/kg/injection, schedule: Q01DX009 (ip), vehicle: saline with Tween-80
  T/C: 100 % of control
endpoint: mean survival time, dose: 20.0 mg/kg/injection, schedule: Q04DX003 (ip), vehicle: Klucel (hydroxypropylcellulose) (HPC)
  T/C: 186 % of control
endpoint: median survival time, dose: 4.0 mg/kg/injection, schedule: Q01DX009 (ip), vehicle: saline
  T/C: 183 % of control
endpoint: median survival time, dose: 8.0 mg/kg/injection, schedule: Q01DX009 (ip), vehicle: saline
  T/C: 155 % of control
endpoint: median survival time, dose: 16.0 mg/kg/injection, schedule: Q01DX009 (ip), vehicle: saline
  T/C: 88 % of control

## CCOC(=O)CN1CCC2CC1c1c([nH]c3ccccc13)C2c1cc2c(cc1OC)N(C)C1C(O)(C(=O)OC)C(OC(C)=O)C3(CC)C=CCN4CCC21C43 (stereo not drawn)
endpoint: mean survival time, dose: 0.06 mg/kg/injection, schedule: Q01DX009 (ip), vehicle: other
  T/C: 87 % of control
endpoint: mean survival time, dose: 0.13 mg/kg/injection, schedule: Q01DX009 (ip), vehicle: other
  T/C: 97 % of control
endpoint: mean survival time, dose: 0.25 mg/kg/injection, schedule: Q01DX009 (ip), vehicle: other
  T/C: 92 % of control
endpoint: mean survival time, dose: 0.5 mg/kg/injection, schedule: Q01DX009 (ip), vehicle: other
  T/C: 92 % of control
endpoint: mean survival time, dose: 1.0 mg/kg/injection, schedule: Q01DX009 (ip), vehicle: other
  T/C: 97 % of control
endpoint: mean survival time, dose: 2.0 mg/kg/injection, schedule: Q01DX009 (ip), vehicle: other
  T/C: 90 % of control

## O=C(C[P+](c1ccccc1)(c1ccccc1)c1ccccc1)C[P+](c1ccccc1)(c1ccccc1)c1ccccc1
endpoint: mean survival time, dose: 100.0 mg/kg/injection, schedule: Q01DX001 (ip), vehicle: saline
  T/C: 97 % of control
endpoint: mean survival time, dose: 200.0 mg/kg/injection, schedule: Q01DX001 (ip), vehicle: saline
  T/C: 95 % of control
endpoint: mean survival time, dose: 400.0 mg/kg/injection, schedule: Q01DX001 (ip), vehicle: saline
  T/C: 92 % of control
